One experiment concerns HLEpiC. The experiment in a line: Determination of G-actin/F-actin ratio using G-Actin/F-Actin In Vivo Assay Kit. In kind it is cell-based, human. The settings on record: about an hour, control 1.16. As to the method: HLEpiC was diluted with a medium (Epithelial Cell Medium), and dispensed to a Poly-L-lysine coated T-75 flask at about 5000 cells/cm^2, and cultured in a carbon dioxide incubator (37° C., 5% CO2) until about 50% confluent. A test substance, a positive control or the medium (control) at each concentration given below was added to each flask at 20 mL.
Test substance: Ripasudil with a concentration of […], 100 μM or 1 mM,
Positive control: CD with a concentration of 2 μM, and
These were treated in a carbon dioxide incubator (37° C., 5% CO2) for about an hour.
To 20 mL of Lysis and F-actin stabilization buffer was added 200 μL of 100 mM ATP stock solution and 200 μL of 100× Protease inhibitor cocktail stock to produce LAS2 buffer, and this was incubated in a carbon dioxide incubator (37° C.) for about 30 minutes. Warmed LAS2 buffer was added at 2.5 mL to each flask in which the medium was removed with vacuum suction.
Next, adherent HLEpiC was completely scraped with a cell scraper and transferred with the LAS2 buffer to a conical tube, and HLEpiC was crushed with a micropipette (hereinafter, referred to as cell solution). This cell solution was incubated in a carbon dioxide incubator (37° C.) for about 10 minutes and then centrifuged for 10 minutes (2000 rpm, room temperature). The supernatant was dispensed into an ultracentrifugal tube at 1.8 mL and centrifuged for an hour with an ultracentrifuge (100,000× g, 37° C.). At this time, F-actin is precipitated and G-actin remains in the supernatant.
The supernatant was transferred to a conical tube while being careful not to suck F-actin precipitates.
To precipitates of each sample was added 1.8 mL of F-actin depolymerizing buffer, and this was incubated under ice-cold conditions for an hour to depolymerize actin.
From each supernatant sample and precipitate sample, 100 μL each was put in a 1.5 mL Eppendorf tube, and 25 μL of 5×SDS sample buffer was added and stirred.
Each sample was boiled in a boiling water bath for 5 minutes.
Each sample was subjected to SDS-polyacrylamide gel electrophoresis, followed by Western blotting.
Next, after treatment using a Western blotting detection reagent (ECL Select Western Blotting Detection Reagent, GE Healthcare Japan), proteins were detected using a Lumino image analyzer. The quantities of G-actin and F-actin were determined using an analysis software (ImageQuant TL, GE Healthcare Japan) and the G-actin/F-actin ratio was calculated.
The variation in the quantity of F-actin required to form actin stress fibers was evaluated by comparison with the G-actin/F-actin ratio of untreated (Control) cells.

Experiment [1] has as its system HT-1080 cell-containing collagen gel. The experiment in a line: Inhibitory action on collagen gel contraction. In kind it is cell-based. The arrangement: key: +: a contraction level was almost equal to that of a group to which Ripasudil was not added; ++: contraction was inhibited; +++: contraction was significantly inhibited. The note with it: HT1080 collagen gel, two or three days. As to the method:
HT-1080 cell suspension adjusted to a density of 150000 to 200000 cells/mL with a medium (medium: E'MEM (Sigma)/10% FBS/NEAA/PCSM), and a solution, obtained by mixing A, B and C solutions (A solution: Cellmatrix (Collagen Type I 3 mg/mL), B solution: concentrated culture solution, 10×MEM Hank's culture solution, and C solution: buffer solution for reconstitution) of collagen gel culture kit (Nitta Gelatin Inc.) mixed at a ratio of 8:1:1 and cooling the obtained mixture, were mixed at a ratio of 1.4:1, and the obtained mixture was seeded in a 48 Well Plate at 500 μL/well and gelatinized in a CO2 incubator to produce a cell-containing collagen gel. After gelation, 1 mL of the medium in which Ripasudil was adjusted to 0.1 μM, 1 μM or 10 μM was added on the gel, and an injection needle was inserted between the gel and the wall surface to release the gel from the wall surface, and the gel was incubated to stand in a CO2 incubator. After two or three days, the contraction of the gel was observed, and photos were taken to evaluate the actions of Ripasudil.

The test system of experiment [2] is Human lens epithelial cells (HLEpiC). The experiment in a line: Reversibility of inhibition of actin stress fiber formation after removal. It is filed as cell-based. The settings on record: recultured about 24 hours after removal. The procedure:
After removal of the test substance, positive control or comparative control in Example 1, the cells were recultured for about another 24 hours, treated in accordance with the operation in Example 1, and then observed by a confocal laser scanning microscope in the same manner as in Example 1 to observe the reversibility of actin stress fibers.

Experiment [3] relates to Human lens epithelial cells (SRA01/04). The experiment in a line: Action on DNA synthesis capability (BrdU uptake) of human lens epithelial cell line. In kind it is cell-based. The settings on record: 24 hours. The procedure:
Human lens epithelial cells (SRA01/04 (Riken Cell Bank)) were cultured using 20% FBS-DMEM medium under conditions of 37° C. and 5% CO2. The concentration of SRA01/04 was adjusted using 2% FBS-DMEM, and the cells were seeded in a 96 Well Plate at 100 μL/well (5000 cells/well) and cultured under conditions of 37° C. and 5% CO2 for 24 hours. The medium was exchanged with 5% FBS-DMEM medium, and TGFβ at 10 ng/mL (final concentration) or Ripasudil at 10, 30 or 100 μM (final concentration) was added to each well, and the cells were cultured for another 24 hours. The uptake rate of 5-bromo-2′-deoxyuridine (BrdU) in the cells was measured using Cell Proliferation ELISA, BrdU (colorimetric) kit (Roche) at a measurement wavelength of 450 nm by Multiskan MS version 8.0 (LABSYSTEMS), and cell proliferation properties were evaluated.

`C[C@H]1CNCCCN1S(=O)(=O)c1cccc2cncc(F)c12` [Ripasudil, 4-fluoro-5-{[(2S)-2-methyl-1,4-diazepan-1-yl]sulfonyl}isoquinoline]: the G-actin/F-actin ratio is 1.91 in the experiment with HLEpiC (10 μM), 4.55 with HLEpiC (100 μM) and 24.87 with HLEpiC (1 mM). In addition, the Inhibition of contraction entry in experiment [1] (Ripasudil 0.1 μM) was “+”; in experiment [1] (Ripasudil 1.0 μM), “++”; in experiment [1] (Ripasudil 10.0 μM), “+++”. Further, the “reversibility of actin stress fibers” value in experiment [2] (100 μM) and in experiment [2] (1 mM) was “recovered” throughout. Besides, the “DNA synthesis capability (BrdU uptake) of SRA01/04” value in experiment [3] (30 μM) was “statistically significant decrease”; in experiment [3] (10, 30 or 100 μM) it was “dose-dependent inhibitory action”.

Source of the values: patent US9844556B2, “Preventive/therapeutic method and preventive/therapeutic agent for complications after cataract surgery” (KOWA COMPANY, LTD., priority 2015, dated 2017).
